By IC50 is commonly meant the concentration at which inhibition is half-maximal. Read a high IC50 as lower potency.

The target in one test is T1, ERK1 (Homo sapiens, UniProt P27361).
T1 construct: purchased Jubilant Biosys
Description: ERK1 HTRF (biochemical) assay. The protocol: ERK1 and ERK2 HTRF (Biochemical) Assays
These assays employed a homogeneous time resolved fluorescence (HTRF) technique. […] The plate was incubated at room temperature for 60 min with shaking. […] The IC50 values (half maximal inhibitory concentration values) were subsequently determined using a sigmoidal dose-response curve (variable slope) in GraphPad Prism® 5 software.
For orientation: TR-FRET usually uses a lanthanide donor and a delayed reading to cut background.

Another test deals with T2, ERK2 (Homo sapiens, UniProt P28482).
T2 construct: purchased Jubilant Biosys
T2 sequence (P28482 whole entry): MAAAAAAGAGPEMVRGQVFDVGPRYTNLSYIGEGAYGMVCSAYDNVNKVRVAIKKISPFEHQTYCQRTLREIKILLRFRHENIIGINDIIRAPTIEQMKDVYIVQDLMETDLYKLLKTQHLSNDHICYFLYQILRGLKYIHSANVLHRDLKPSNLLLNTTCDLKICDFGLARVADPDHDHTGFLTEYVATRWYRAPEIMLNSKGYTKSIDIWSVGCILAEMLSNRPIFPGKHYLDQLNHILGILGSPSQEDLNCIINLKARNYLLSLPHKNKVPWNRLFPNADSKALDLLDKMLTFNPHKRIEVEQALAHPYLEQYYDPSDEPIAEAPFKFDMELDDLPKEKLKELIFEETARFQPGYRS
Kind of test: ERK2 HTRF (biochemical) assay. The method in brief: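 Compounds were tested as half-log dilutions from 0.0005 to 10 uM in Tris pH 7.5/MgCl2 buffer, with a substrate mix of 1 uM biotin-MBP peptide and 24 uM ATP and an enzyme mix of 25 nM ERK2. Reaction ran 60 min at room temperature. Phospho-MBP was detected by HTRF (Eu-anti-phospho-MBP/SA-APC, 665/620 nm), and IC50 was fitted with a variable-slope sigmoidal curve.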

T1 sequence (P27361 whole entry): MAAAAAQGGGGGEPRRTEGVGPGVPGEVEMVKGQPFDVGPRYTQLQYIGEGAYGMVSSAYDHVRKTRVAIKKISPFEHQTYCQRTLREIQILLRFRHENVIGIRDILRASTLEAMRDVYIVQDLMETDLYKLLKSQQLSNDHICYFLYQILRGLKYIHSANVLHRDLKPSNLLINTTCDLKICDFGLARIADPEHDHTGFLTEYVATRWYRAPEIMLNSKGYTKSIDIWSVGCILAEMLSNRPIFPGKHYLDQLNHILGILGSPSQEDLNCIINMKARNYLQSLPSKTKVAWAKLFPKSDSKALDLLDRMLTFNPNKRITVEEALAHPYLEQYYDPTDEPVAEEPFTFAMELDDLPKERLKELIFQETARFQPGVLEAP

As to `Cc1cnc(N[C@@H]2CCOC2)nc1-n1cnc(C(=O)N[C@H](CO)c2cccc(Cl)c2)c1` [Example 265, N-((S)-1-(3-chlorophenyl)-2-hydroxyethyl)-1-(5-methyl-2-(((R)-tetrahydrofuran-3-yl)amino)pyrimidin-4-yl)-1H-imidazole-4-carboxamide], the 50% inhibitory concentration (IC50) against ERK1 (HTRF) is less than 50 nM; against ERK2 (HTRF), no more than 50 nM.
As to `Cc1cnc(Nc2ccc(F)cc2Cl)nc1-n1cnc(C(=O)NCc2cccc(Cl)c2CO)c1` [Example 329, N-(3-chloro-2-(hydroxymethyl)-benzyl)-1-(2-((2-chloro-4-fluoro-phenyl)amino)-5-methylpyrimidin-4-yl)-1H-imidazole-4-carboxamide], the IC50 on ERK1 (HTRF biochemical assay) was less than 50 nM; against ERK2 (HTRF biochemical assay), no more than 50 nM.
Consider `Cc1cnc(Nc2ccnn2C)nc1-n1cnc(C(=O)N[C@H](CO)c2cccc(Cl)c2)c1` [Example 277, (S)-N-(1-(3-chlorophenyl)-2-hydroxyethyl)-1-(5-methyl-2-((1-methyl-1H-pyrazol-5-yl)amino)-pyrimidin-4-yl)-1H-imidazole-4-carboxamide], for which the IC50 on ERK1 (HTRF) is less than 50 nM; against ERK2 (HTRF), no more than 50 nM.
The like results for `Cc1cnc(NC2CC=CCC2)nc1-n1cnc(C(=O)N[C@H](CN)c2cccc(Cl)c2)c1` (stereo partly drawn) [Example 292, N-((S)-2-amino-1-(3-chlorophenyl)-ethyl)-1-(2-(cyclohex-3-en-1-ylamino)-5-methyl-pyrimidin-4-yl)-1H-imidazole-4-carboxamide] were, in that order, less than 50 nM and no more than 50 nM.
The like results for `Cc1cnc(NC2CC2)nc1-n1cc(NC(=O)NC(CO)c2cccc(Cl)c2)cn1` (centres unmarked) [Compound 28, 1-(1-(3-chloro-phenyl)-2-hydroxy-ethyl)-3-(1-(2-(cyclopropyl-amino)-5-methylpyrimidin-4-yl)-1H-pyrazol-4-yl)urea] were, in that order, 50 to 100 nM and 50 to 100 nM.
The like results for `O=C(NC(CO)c1ccccc1)c1ccn(-c2ccnc(Nc3ccccc3)c2)c1` (centres unmarked) [Compound 71, N-(2-hydroxy-1-phenylethyl)-1-(2-(phenylamino)pyridin-4-yl)-1H-pyrrole-3-carboxamide] were, in that order, less than 50 nM and no more than 50 nM.
As to `Cc1ccc(C(CO)NC(=O)c2cn(-c3nc(NC4CCOCC4)ncc3C)cn2)s1` (centres unmarked) [Example 261, N-(2-hydroxy-1-(5-methylthiophen-2-yl)ethyl)-1-(5-methyl-2-((tetrahydro-2H-pyran-4-yl)amino)-pyrimidin-4-yl)-1H-imidazole-4-carboxamide], the IC50 against ERK1 (HTRF) is less than 50 nM; at ERK2 (HTRF), no more than 50 nM.
Turning to `Cc1cnc(NC2CCCN(C)C2)nc1-n1ccc(C(=O)NC(CO)c2cccc(Cl)c2)c1` (centres unmarked) [Compound 199, N-(1-(3-chloro-phenyl)-2-hydroxy-ethyl)-1-(5-methyl-2-((1-methyl-piperidin-3-yl)-amino)pyrimidin-4-yl)-1H-pyrrole-3-carboxamide], the IC50 against ERK1 (HTRF) was less than 50 nM; on ERK2 (HTRF), no more than 50 nM.
The like results for `Cc1cnc(Nc2ccc(F)cc2Cl)nc1-n1cc(C(=O)NC(CO)c2cccc(Cl)c2)cn1` (centres unmarked) [Compound 45, 1-(2-((2-chloro-4-fluorophenyl)amino)-5-methyl-pyrimidin-4-yl)-N-(1-(3-chlorophenyl)-2-hydroxyethyl)-1H-pyrazole-4-carboxamide] were, in that order, less than 50 nM and no more than 50 nM.
In the same order, the values of `Cc1cnc(NC2CCOCC2)nc1-n1cnc(C(=O)N[C@@H](CN)c2cc(F)cc(Cl)c2)c1` [Example 276, (R)-N-(2-amino-1-(3-chloro-5-fluoro-phenyl)ethyl)-1-(5-methyl-2-((tetrahydro-2H-pyran-4-yl)amino)-pyrimidin-4-yl)-1H-imidazole-4-carboxamide] are less than 50 nM and no more than 50 nM.
In the same order, the values of `Cc1cnc(Nc2ccc(F)cc2)nc1-n1cnc(C(=O)NC(CO)c2ccccc2)c1` (centres unmarked) [Compound 118, 1-(2-((4-fluoro-phenyl)amino)-5-methylpyrimidin-4-yl)-N-(2-hydroxy-1-phenylethyl)-1H-imidazole-4-carboxamide] are 50 to 100 nM and no more than 50 nM.
Consider `Cc1cnc(NC2CCOCC2)nc1-n1cnc(C(=O)N[C@H](CNC2CCOCC2)c2cccc(Cl)c2)c1` [Example 308, (S)-N-(1-(3-chlorophenyl)-2-((tetrahydro-2H-pyran-4-yl)amino)-ethyl)-1-(5-methyl-2-((tetrahydro-2H-pyran-4-yl)amino)-pyrimidin-4-yl)-1H-imidazole-4-carbox amide], for which the IC50 was less than 50 nM against ERK1 (HTRF biochemical assay) and no more than 50 nM against ERK2 (HTRF biochemical assay).
Regarding `Cc1cnc(Nc2ccc(F)cc2)nc1-n1cnc(C(=O)N[C@@H](CN)c2cccc(Cl)c2)c1` [Compound 249, (R)-N-(2-amino-1-(3-chlorophenyl)-ethyl)-1-(2-((4-fluorophenyl)-amino)-5-methyl-pyrimidin-4-yl)-1H-imidazole-4-carboxamide], the figures for the IC50 against ERK1 (HTRF) and against ERK2 (HTRF) were 500 to 2500 nM and 100 to 500 nM, respectively.
In the same order, the values of `Cc1cnc(NC2CCNCC2)nc1-n1cnc(C(=O)NC(CO)c2cccc(Cl)c2)c1` (centres unmarked) [Compound 214, N-(1-(3-chlorophenyl)-2-hydroxyethyl)-1-(5-methyl-2-(piperidin-4-ylamino)pyrimidin-4-yl)-1H-imidazole-4-carboxamide] are less than 50 nM and no more than 50 nM.
The like results for `Cc1cnc(Nc2ccc(F)cc2Cl)nc1-n1ccc(C(=O)N[C@H](CO)c2cccc(Cl)c2)c1` [Compound 57, (S)-1-(2-((2-chloro-4-fluorophenyl)-amino)-5-methyl-pyrimidin-4-yl)-N-(1-(3-chlorophenyl)-2-hydroxyethyl)-1H-pyrrole-3-carboxamide] were, in that order, less than 50 nM and no more than 50 nM.
In the same order, the values of `Cc1cnc(Nc2ccc(F)c(C(=O)N3CCN(C)CC3)c2)nc1-n1ccc(C(=O)NC(CO)c2cccc(Cl)c2)c1` (centres unmarked) [Compound 179, N-(1-(3-chlorophenyl)-2-hydroxyethyl)-1-(2-((4-fluoro-3-(4-methylpiperazine-1-carbonyl)phenyl)amino)-5-methyl-pyrimidin-4-yl)-1H-pyrrole-3-carboxamide] are less than 50 nM and no more than 50 nM.
Regarding `O=C(Nc1cnn(-c2ccnc(Nc3ccc(F)cc3Cl)n2)c1)N[C@H](CO)c1cccc(Cl)c1` [Compound 20, (S)-1-(1-(2-((2-chloro-4-fluorophenyl)amino)pyrimidin-4-yl)-1H-pyrazol-4-yl)-3-(1-(3-chlorophenyl)-2-hydroxyethyl)urea], the figures for the IC50 against ERK1 (HTRF) and at ERK2 (HTRF) were less than 50 nM and no more than 50 nM, respectively.
The like results for `Cc1cnc(Nc2ccc(Oc3ccccc3)cc2)nc1-n1cnc(C(=O)NC(CN)c2cccc(Cl)c2)c1` (centres unmarked) [Compound 231, N-(2-amino-1-(3-chlorophenyl)ethyl)-1-(5-methyl-2-((4-phenoxyphenyl)amino)pyrimidin-4-yl)-1H-imidazole-4-carboxamide] were, in that order, less than 50 nM and no more than 50 nM.
Regarding `Cc1cnc(NC2CCOCC2)nc1-n1cnc(C(=O)N[C@H](CNCC(C)(C)C)c2cccc(Cl)c2)c1` [Example 337, (S)-N-(1-(3-chlorophenyl)-2-(neopentylamino)-ethyl)-1-(5-methyl-2-((tetrahydro-2H-pyran-4-yl)amino)-pyrimidin-4-yl)-1H-imidazole-4-carboxamide], the figures for the IC50 against ERK1 (HTRF biochemical assay) and against ERK2 (HTRF biochemical assay) were less than 50 nM and no more than 50 nM, respectively.

These data come from patent US9896445B2, “Heterocyclic inhibitors of ERK1 and ERK2 and their use in the treatment of cancer” (Asana Biosciences, LLC, priority 2015, dated 2018).
